Data set [1] concerns PC12 cells. Briefly: Collapse of mitochondrial membrane potential (JC-1) in PC12 cells. The format is cell-based, rat. Particulars: PC12, 50 μM MGV-1, 35 mM glutamate. An excerpt: JC-1 was used to assay changes in Δψm, as described previously.[71],[79] Owing to charges distributed along JC-1 molecules, they pass unimpaired (charged) mitochondrial membranes and enter the mitochondrial matrix. There the J-molecules form J-aggregates, which emit at 590 nm (orange–red fluorescence). […] The monomers emit at 527 nm (green fluorescence). A decrease in the red–green fluorescence intensity ratio is an indication for mitochondrial depolarization. As a positive control, the proton ionophore carbonyl cyanide m-chlorophenylhydrazone was used as described previously.[71] Cells were collected and prepared for suspension in 10 μg/ml of JC-1 solution in PBS. After incubation at 37 °C for 30 min in the dark, the cells were washed with 0.5 ml of PBS, and the cell suspensions were analyzed with the BD FACSCalibur flow cytometer.

Data set [2] deals with R6-2 mice. Briefly: R6-2 transgenic mouse model for Huntington disease (lifespan, behavior). In kind it is in vivo. Conditions: pilot studies, s.c. daily 5 days per week; MGV-1 15 mg/kg, PK 11195 15 mg/kg, MGV-2 15 and 7.5 mg/kg. The text has this:
Huntington disease in humans is a hereditary disease including neurodegeneration leading to degradation in motor performance, continual involuntary movements, tremors, cardiovascular and respiratory impairments, and finally leading to death of the patients having the disease.[88] For this study, R6-2 mice (~120 CAG repeats B6CBA-Tg(HDexon1)62 Gpb/3J) mice were used as a transgenic mouse model for Huntington disease. For this purpose, mice obtained from the Jackson Laboratory were bred. In particular, males hemizygous for Tg(HDexon1)62 Gpb, and females from the wild-type background strain B6CBAF1/J, were bred according to the protocol of Jackson Laboratory.
For tests of drug efficacy, male offspring hemizygous for Tg(HDexon1)62 Gpb were used to determine drug effect on lifespan, motor activity, and general well-being of the animals. Drug treatment for this study consisted of daily (5 continuous days per week) subcutaneous injections in the neck area of mice with 20 μl of: the drug vehicle DMSO (vehicle control), 2-Cl-MGV-1(7.5 mg/kg) and 2-Cl-MGV-2 (7.5 mg/kg). […] Quantities were used according to previous studies regarding TSPO ligands[48] and adapted depending on the findings in the course of the pilot studies. The treatments were given until the animals died a natural death. Behavioral experiments included distance covered in an open field apparatus,[89] freezing,[89] and balance on a rotor-rod.[90] Spontaneous tremor activity was evaluated using a Hamilton–Kinder sensor in a soundproof ventilated apparatus (Kinder Scientific). The assays for locomotor activity, tremors, and body weight were performed on a weekly basis, together with evaluation of the well-being of the mice. Finally, the day of death was noted. As lifespan data were most pronounced, these are presented in the present description of the results. No adverse effects of any of the drug treatments were noted, neither for specific tests, nor for general observations. Importantly, DMSO had no effect by itself as compared with naive mice or saline-injected mice with various behavioral assays.[20]

In data set [3] the test system is PC12 cells. Briefly: Neuronal differentiation of PC12 cells, strain not specified. In kind it is cell-based, rat. Conditions: agent by itself; MGV-1 50 μM. The procedure: For our newly developed differentiation method by MGV-1 in combination with glutamate, PC12 cells were plated onto poly-L-lysine coated culture plates and Petri dishes at a relatively low density (5.2×10^3 cells/cm^2 for six-well plates and 3.6×10^3 cells/cm^2 for Petri dishes), in DMEM medium containing 8% heat-inactivated FBS and 8% horse serum. […] Exposure to vehicle alone (culture medium with 1% of ethanol) was used as the control.
The major and determining indication of neural differentiation of PC12 cells is neurite development.[23],[80] […] The number of differentiated cells was determined by visual examination of the captured fields. In particular, a line was drafted at half height of the image and the cell bodies crossed by the line were further analyzed regarding differentiation. […] Cells with at least one identifiable neurite with a length at least equal to the cell body diameter were scored, and their number expressed as a percentage of the total number of cells crossed by said line. In addition, for each of these cells, the length of the longest neurite was determined (using AxioVision Image software, Zeiss). […]

The test system of data set [4] is PC12 cells strain #1 (polygonal cells). Briefly: Neuronal differentiation (neurite sprouting) of PC12 strain #1. In kind it is cell-based, rat. Particulars: strain #1, only polygonal cells.
Data set [5] has as its system U118MG cells. Briefly: LDH cytotoxicity assay, glutamate-induced cell death of U118MG cells. Particulars: 35 mM glutamate. Here is the method:
(1) For U118MG cells, glutamate at a concentration of 35 mM was applied with or without MGV-1. As discussed, glutamate levels in normal healthy brain tissue can average 15 mM, and these levels can be doubled in diseased brain tissue, whereas in cell organelles glutamate levels can be as high as 250 mM (as discussed). […] In more detail, U118MG cells were seeded, 2×10^5 cells per well of 6-well plates and 6×10^3 cells per well of 96-well plates. Twenty-four hours after seeding, U118MG cells were pretreated with MGV-1 (or one of the other compounds) at various concentrations from 0.1 nM–100 μM. Twenty-four hours after the pretreatment, the cells were exposed to 35 mM of glutamate. […] The negative control was vehicle, that is, ethanol with a final concentration of 1%. […] The positive control was exposure to 35 mM of glutamate alone (with 200 μM of glycine).
Wells of 96-well plates were with 6000 cells per well and treated according the protocol presented above. We used the Cytotoxicity Detection Kit (LDH) (Roche Pharmacuticals) according to the manufacturer’s instructions. When cell plasma membranes are damaged, the cytoplasmic enzyme LDH is released into the medium. The amount of formazan formed is proportional to the amount of LDH released.[77] The resulting color intensity is proportional to the number of damaged cells. Absorbance at 492 nm with reference at 690 nm was measured with the Spectrophotometer Zenyth 200 (Anthos) and the results were calculated and normalized according to the formula presented by the manufacturer.

In data set [6] the test system is PC12 cells. Put plainly: Cell death of PC12 cells, glutamate with or without MGV-1 (LDH). In kind it is cell-based, rat. Here is the method: (2) For PC12 cells (as for U118MG cells), dose-response assays of the lethal effects of glutamate on PC12 cells established 35 mM as an optimal concentration for glutamate for induction of LDH activity in the medium in the range of 20–40% as compared with the effect of the positive control, 1% Triton X-100, the latter which is defined as causing 100% of LDH release in the medium.

We go through one compound from PMC4979516, “Quinazoline-based tricyclic compounds that regulate programmed cell death, induce neuronal differentiation, and are curative in animal models for excitotoxicity and hereditary brain disease” (Cell Death Discovery, 2015).

Values joined by “and” are separate entries in the source; they are usually repeats but may differ in a detail not shown here. Equal entries are not always repeated. “Also recorded” adds a separate entry of the source.

For the compound `CN(C)C(=O)Oc1nc(-c2ccccc2)nc2ccccc12` [MGV-1, 2-phenylquinazolin-4-yl dimethylcarbamate], the “Enhancement of the incidence of collapse of the ΔΨm” value in data set [1] is reported as “threefold”. Further, in data set [2], the “Effect on behavior and lifespan of R6-2 mice” value is “did not appear to have an effect”. The “Neuronal differentiation of PC12 cells (neurite outgrowth)” value in data set [3] was “very effective in inducing extensive neuronal differentiation; also recorded: more effective than NGF and glutamate by themselves”. Besides, the “Differentiation of PC12 strain #1 by the agent by itself” value in data set [4] is reported as “can be differentiated by MGV-1 by itself”. Also, in data set [5] (compound 10-100 μM, 24 h pretreatment), the “Protection against glutamate-induced cell death (LDH)” value is on record as “protect against lethal effects of glutamate; also recorded: prevented cell death induction”. Besides, in data set [5] (tested 0.1 nM-100 μM), the “Most effective concentration for protection against cell death” value was 25 µM and 50 µM. The “Cell death of PC12 cells by the compound by itself” value in data set [6] (100 μM, no glutamate) was “can induce cell death”. For the same compound, the “Enhancement of cell death induction by glutamate” value in data set [6] (PC12, 50 μM MGV-1, 35 mM glutamate) is given as “threefold”. In addition, the “Optimal concentration as enhancer of cell death induced by glutamate” value in data set [6] (PC12, 35 mM glutamate, tested 0.1 nM-100 μM) was 50 µM.
